The subject of one data set is skin tumors. The note with it: mouse, in vivo; cited from earlier work.
Another data set has as its system DNA. As to conditions: cited from earlier work.
Data set [1] has as its system normal human epidermal keratinocytes. The data set is described as follows: Ratiometric fura-2 live-cell calcium imaging of keratinocytes. In kind it is cell-based. On the procedure:
(§1) Normal human keratinocytes were isolated from human foreskins by undergoing two enzymatic dissociation steps, first in dispase then in trypsin. Cells were cultured in EpiLife supplemented with human keratinocyte growth supplement (HKGS; Invitrogen). For all experiments with undifferentiated cells, keratinocytes were harvested or images at ˜75% confluency. Differentiation was induced by adding CaCl2 to the EpiLife media to reach a final [Ca2+] of 1.2 mM. Cells were typically cultured for 3 days under differentiation conditions before they were assayed. Keratinocytes were cultured for <5 passages. Purified Camphor (CAS #76-22-2), 2-APB (Tocris) or vehicle (1% EtOH)-containing media were used as indicated.
(§2) Human keratinocytes and SCC cells were washed in Ringer's solution (in mM: NaCl 140, KCl 5, D-glucose 10, HEPES 10, CaCl2 2, MgCl2 2, pH 7.2) and loaded with 5 μM fura-2AM and 1 μM pluronic (Invitrogen) for 30 minutes in the dark. During live-cell imaging, saturating concentrations of TRP agonists (10 mM Camphor, 100 μM 2-APB 1 μM Capsaicin, 300 μM Mustard oil or 3 μM 4αPDD) in Ringer's were used. Cells were imaged for 20 s to establish a baseline and then acutely treated with each agonist for 60 seconds. Imaging was performed on an Olympus IX81 microscope with a 20× (NA 0.17) objective and a Hamamatsu ORCA-R2 camera. 340- and 380-nm excitation and 540-nm emission filters were used to capture fura-2 fluorescence. Data are expressed as a ratio of fluorescent signals (340/380). All data acquisition was performed in MetaFluor. Data analysis was performed with custom algorithms in IgorPro. Cells with baseline levels ±2 SD above the mean were excluded from analysis as unhealthy. Responders were designated as cells whose 340/380 ratio was ≧20% above baseline.
TRP channels are selectively activated by endogenous and exogenous ligands at micromolar to millimolar concentrations. Since TRP channel activity increases over this range to allow graded Ca^2+ influx, receptor activity levels can be monitored by live-cell Ca^2+ imaging. A ratiometric calcium indicator (Fura-2) was employed to determine whether a panel of TRP-channel agonists elicited cytoplasmic calcium increases in human epidermal keratinocytes. (FIG. 1A-1E, FIG. 2A-2B, and Table 3).
Normal human keratinocytes were cultured in low-calcium media to promote proliferation or in 1.2-mM calcium media to induce differentiation. For live-cell imaging, keratinocytes were then washed and bathed in Ringer's solution containing 2 mM calcium so that calcium signals could be directly compared between cell populations.
In keratinocytes, increased intracellular calcium stimulates the terminal differentiation process. To determine whether camphor oil and its abundant constituents are directly bioactive on epithelial keratinocytes, a ratiometric Ca2+ indictor (Fura-2) was employed to test whether a panel of terpenes elicited cytoplasmic Ca2+ increases in undifferentiated human epidermal keratinocytes (FIG. 19A-19C). Keratinocytes were cultured according to our standard methods. For live-cell imaging, keratinocytes were bathed in Ringer's solution containing 2 mM Ca2+.

In a further data set the test system is SCC-13 cells. The data set is described as follows: Live-cell calcium imaging of SCC cell line SCC-13. The class given is cell-based, human. The note with it: 10 mM camphor; compared with proliferating keratinocytes. How it is done: as §2
(§3) Moreover, their responses to camphor mirror their respective levels of TRP channel expression.

For the next data set, the system named is SCC-39 cells. The data set is described as follows: Live-cell calcium imaging of SCC cell line SCC-39. In kind it is cell-based, human. As to conditions: 10 mM camphor; compared with SCC-13 cells. On the procedure:
as §2, §3

Data set [2] deals with normal human keratinocytes. The data set is described as follows: Keratinocyte cell counts (DAPI), morphology and EdU proliferation assay after 24 h treatment. The note with it: 24 hours. How it is done: as §1
Cells were treated with 2-APB or camphor for 24 hours at 37° C., exposed to EdU for 45 min, fixed and stained with DAPI for cell counting. EdU Click-It assays (Invitrogen) were used to assess cell-cycle entry. The cells were then fixed and stained with DAPI. Three fields per well were assayed via a 20× objective and there were 4 wells per treatment in each experiment. EdU=5-ethynyl-2′-deoxyuridine.
As Ca^2+ triggers the commitment switch from proliferation to differentiation in keratinocytes, it was reasoned that increasing intracellular calcium by incubating keratinocytes in TRP agonists might be sufficient to induce this cell-fate switch in low-calcium growth media. To test this hypothesis, normal human keratinocytes were cultured for 24 hours under low-Ca^2+ conditions in the presence of low (12.5 μM), half-maximal (50 μM) and saturating (100 μM) concentrations of 2-APB (FIG. 3A) or camphor (0-8 mM) (FIG. 3E). These TRP agonists were chosen because they reliably elicited intracellular calcium signaling in normal human keratinocytes (FIG. 1A-1E).
As camphor can activate both TRPV3 and TRPV1 channels, these experiments were repeated in the presence of a specific TRPV1 antagonist, AMG-9810 (Gavva et al., 2005).

A further data set relates to keratin 10 (K10). As to the kind of experiment: Western blot of keratin 10 in epidermal lysates after topical camphor. The class given is in vivo, FVB mice. The note with it: 5 days. How it is done:
To determine whether topical camphor treatment promotes keratinocyte differentiation in vivo, a separate cohort of adult female FVB mice were treated twice daily for a period of 5 days with increasing concentrations of topical camphor (0, 15%, 20% or 30% (wt/wt) camphor in acetone; N=3-4 mice per group). One day after the final topical dose, mice were sacrificed and epidermal lysates were prepared for immunoblot analysis according to standard protocols (Owens et al., J. Invest. Dermatol. 1996). […] Protein levels were detected by peroxidase activated luminol exposure to X-ray film and estimated by densitometry using NIH-Image J software. Levels of K10 were normalized to levels of beta-tubulin for each sample; therefore, data are expressed as the ratio of K10 to beta-tubulin (K10/beta-tubulin). […]
To determine whether topical camphor treatment promotes keratinocyte differentiation in vivo, adult female FVB mice (n=3-4 per group) were treated twice daily for a period of 5 days with increasing concentrations of topical camphor (15%, 20% or 30% (wt/wt)) or vehicle only. […] It was determined that topical camphor treatment upregulates levels of a keratinocyte terminal differentiation marker in vivo.
A general note: A western blot detects proteins with antibodies after separation by electrophoresis.

A further data set relates to TRPV3. The note with it: Activation; cited from earlier work.
In another data set the target is TRPV1 (Rattus norvegicus, UniProt O35433). As to conditions: Activation; cited from earlier work.
The next data set relates to TRPA1. The note with it: Inhibition; read-out: Effective concentration IC50; cited from earlier work.
For data set [3] the following is noted: cited from earlier work.
The conditions of data set [4]: cited from earlier work. The source holds these as a separate data set.
For data set [5] the following is noted: cited from earlier work. This is another data set of the same source.

Results on two compounds are retold here after patent US20160051493A1, “METHODS OF TREATMENT OF KERATINOCYTE-DERIVED LESIONS” (THE TRUSTEES OF COLUMBIA UNIVERSITY IN THE CITY OF NEW YORK, priority 2012, published 2016).

“Also recorded” adds a separate entry of the source. Where only a bound is given, the exact number is not on record here.

Sequence of TRPV1 (O35433 whole entry): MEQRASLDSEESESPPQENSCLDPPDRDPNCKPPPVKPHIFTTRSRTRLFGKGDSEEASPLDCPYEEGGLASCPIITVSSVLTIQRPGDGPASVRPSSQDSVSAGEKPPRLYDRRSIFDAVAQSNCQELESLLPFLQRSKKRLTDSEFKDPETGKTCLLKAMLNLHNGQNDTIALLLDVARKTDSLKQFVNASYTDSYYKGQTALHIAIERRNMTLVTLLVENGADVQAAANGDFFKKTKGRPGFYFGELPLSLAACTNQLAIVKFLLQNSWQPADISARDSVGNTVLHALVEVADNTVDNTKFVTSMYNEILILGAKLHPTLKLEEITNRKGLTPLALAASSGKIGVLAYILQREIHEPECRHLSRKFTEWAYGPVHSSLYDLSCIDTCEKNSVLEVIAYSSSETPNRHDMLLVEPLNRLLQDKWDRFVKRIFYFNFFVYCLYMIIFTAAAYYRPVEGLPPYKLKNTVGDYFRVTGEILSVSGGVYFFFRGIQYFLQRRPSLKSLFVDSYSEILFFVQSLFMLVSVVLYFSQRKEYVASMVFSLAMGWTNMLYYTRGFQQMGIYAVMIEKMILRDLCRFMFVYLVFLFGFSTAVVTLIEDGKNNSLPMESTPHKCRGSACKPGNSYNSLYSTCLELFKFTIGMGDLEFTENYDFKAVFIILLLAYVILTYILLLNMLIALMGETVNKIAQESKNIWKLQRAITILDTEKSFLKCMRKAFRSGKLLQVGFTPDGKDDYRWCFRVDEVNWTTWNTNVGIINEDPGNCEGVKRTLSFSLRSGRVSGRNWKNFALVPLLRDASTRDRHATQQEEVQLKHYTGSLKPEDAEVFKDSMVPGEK

In the case of `Nc1ccc(C(=O)O)cc1` [p-Aminobenzoic acid], the “Results of safety: against skin tumors in mice” value with skin tumors is given as “Protects”. In addition, the “Results of safety: DNA defects” value with DNA is on record as “increase”.
As for `CC12CCC(CC1=O)C2(C)C` (racemic) [Camphor, 1,7,7 Trimethylbicyclo[2.2.1]heptan-2-one], in [1] (10 mM camphor), the “proportion of cells showing Ca2+ increases, differentiated versus proliferating keratinocytes” value was 5.7 fold. For the same compound, in data set [1] (differentiated in 1.2 mM Ca2+, responders F340:F380 increase ≧20%, 4αPDD 3 μM, camphor 10 mM, 2-APB 100 μM), the “% Responders (differentiated) Mean ± SEM” value stood at 37.5 ± 15.7%. The “magnitude of camphor-evoked responses, increase over baseline” value in data set [1] (differentiated keratinocytes) stood at 78±1%; in [1] (growth conditions), 55±1%. Also, in [1] (growth conditions, responders F340:F380 increase ≧20%, saturating agonist (4αPDD 3 μM, camphor 10 mM, 2-APB 100 μM, capsaicin 1 μM, mustard oil 300 μM), SD for capsaicin and mustard oil), the “% Responders (undifferentiated) Mean ± SEM or SD” value came out at 6.5 ± 2.8%. For the same compound, in the data set on SCC-13 cells, the “camphor-evoked cytoplasmic calcium signals” value is reported as “increased”. Also, the camphor-evoked calcium responses result in the data set with SCC-39 cells is on record as “significantly fewer”. Further, the “concentration that arrests proliferation without inducing necrotic changes” value in data set [2] was in the range of 4 to 8 mM. Moreover, the “expression of K10” value with keratin 10 (K10) (15%, 20% or 30% (wt/wt) topical twice daily) was “increased with camphor treatment in a dose-dependent manner; also recorded: upregulates”. Moreover, the “K10 protein levels (K10/beta-tubulin) versus lower concentrations or vehicle” value with keratin 10 (K10) (30% (wt/wt) topical twice daily) is “significantly higher”. Also, the figures for the “Effective concentration Range” value with TRPV3 and on TRPV1 were “Range = 2-10 mM” and “Range = 1-10 mM”, respectively. For the same compound, the IC50 in the data set with TRPA1 is 68 µM. For the same compound, the solubility in water entry in data set [3] is “slightly soluble”. Moreover, the “sensation on skin of volunteers” value in [4] (20% solution in alcohol, normal skin temperatures (Green 1990)) is “no significant sensation of irritation or pain”. Moreover, the “doses reported to cause skin irritation as well as toxicity when ingested” value in [4] (in vivo) was greater than 20%. In addition, the absorption result in data set [5] (after inhalation or dermal exposure (Baselt and Cravey 1990)) is “well absorbed”. Also, the plasma concentrations result in data set [5] (low-dose (46.80 mg) dermal application (Martin et al. 2004)) was “low plasma concentrations”.
